Test results reported in patent US6924302B2, “Substituted triazole diamine derivatives as kinase inhibitors” (Ortho McNeil Pharmaceutical, Inc., priority 2000, dated 2005).
Where two headings read alike, the source gives them in different places.

Tests used:
A375 malignant melanoma = assay: Inhibition of Cell Proliferation (14C-thymidine incorporation), A375; format: cell-based; settings: Homo sapiens, A-375, A375 cell line
Method: (§1) The ability of a test compound to inhibit the proliferation of cell growth was determined by measuring incorporation of ^14C-labelled thymidine into newly synthesized DNA within the cells. This method was used on cell lines derived from carcinomas originating from several tissues such as HeLa cervical adenocarcinoma (American Type Culture Collection (ATCC), Virginia, Cat. #CCL-2), A375 malignant melanoma (ATCC CRL-1619), SK-OV-3 ovarian adenocarcinoma (ATCC HTB-77) HCT-116 colon carcinoma (CCL-247), PC-3 prostate adenocarcinoma (ATCC CRL-1435), and MDA-MB-231 (Xenogen Corp.) In this way the effect of a compound on cell growth of cells with many different phenotypes can be determined. Cells were trypsinized and counted and 3000-8000 cells were added to each well of a 96-well CytoStar tissue culture treated scintillating microplate (Amersham #RPNQ0160) in complete medium in a volume of 100 μl. Cells were incubated for 24 hours in complete medium at 37° C. in an atmosphere containing 5% CO2. Next, 1 μl of test compound in 100% DMSO was added to the wells of the plate. DMSO only was added to control wells. Cells were incubated for 24 more hours in complete medium at 37° C. in an atmosphere containing 5% CO2. Methyl ^14C-thymidine 56 mCi/mmol (NEN #NEC568 or Amersham #CFA532) was diluted in complete medium and 0.2 uCi/well was added to each well of the CytoStar plate in a volume of 20 μl. The plate was incubated for 24 hours at 37° C. plus 5% CO2 in drug plus ^14C-thymidine. The contents of the plate were discarded into a ^14C radioactive waste container by inverting the plate and the plate was washed twice with 200 μl PBS. 200 μl of PBS is added to each well. The top of the plate was sealed with a transparent plate sealer and a white plate backing sealer (Packard #6005199) was applied to the bottom of the plate. The degree of methyl ^14C-thymidine incorporation was quantified on a Packard Top Count.

[1] = system: PC-3 prostate adenocarcinoma; assay: Inhibition of Cell Proliferation (14C-thymidine incorporation), PC-3; format: cell-based; settings: Homo sapiens, PC-3 cell line
Method: as §1

[2] = biological target: T1, VEGF-R (vascular endothelial growth factor receptor-2) (Rattus norvegicus, UniProt O08775); assay: VEGF-R Screening Assay; format: biochemical; settings: read-out: VEGF-R IC50
T1 construct: polyhistidine (6xHIS) (N)

[3] = biological target: T2, HER2 (human epidermal growth factor receptor-2) (Homo sapiens, UniProt P04626); assay: Kinase Selectivity Assay HER2; format: biochemical
T2 construct: begins at amino acid 676 followed by the remainder of the HER2 cytoplasmic domain; polyhistidine (N)
Summary of the method: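 Biotinylated peptide phosphorylation measured as ^33P-γ-ATP incorporation on streptavidin plates after 1 h at 30° C, 1% DMSO final, enzyme in 50 mM Tris-HCl pH 8.0, 0.1% BSA. Compounds in duplicate at 8 concentrations, 100 uM to 10 pM. IC50 from percent inhibition versus log concentration.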

FGF-R2 = FGF-R2 (Homo sapiens, UniProt P21802); assay: Kinase Selectivity Assay FGF-R2; format: biochemical; settings: Tables 2a-2k
Method: Assays to test compound inhibition of other kinases were preformed using methods that measure the amount of phosphorylation of a biotinylated peptide substrate. Biotinylated peptide substrates were selected from the literature as appropriate for the enzyme being evaluated. […] Assay conditions vary slightly for each protein kinase, for example, insulin receptor kinase requires 10 mM MnCl2 for activity and Calmodulin-dependent protein kinase requires calmodulin and 10 mM CaCl2. These assay conditions are known in the art. The reaction mixture was dispensed into the wells of a streptavidin coated Flashplate and 1 μl drug stock in 100% DMSO was added to a 100 μl reaction volume resulting in a final concentration of 1% DMSO on the reaction. Enzyme was diluted in 50 mM Tris-HCl pH=8.0, 0.1% BSA and add to each well. The reaction was incubated for one hour at 30° C. in the presence of compound. After one hour the reaction mix was aspirated from the plate and the plate was washed with PBS containing 100 mM EDTA. The plate was read on a scintillation counter to determine ^33P-γ-ATP incorporated into the immobilized peptide. Test compounds were assayed in duplicate at 8 concentrations [100 uM, 10 uM, 1 uM, 100 nM, 10 nM, 1 nM, 100 pM, 10 pM]. A maximum and minimum signal for the assay was determined on each plate. The IC50 was calculated from the dose response curve of the percent inhibition of the maximum signal in the assay according to the formula [max signal—background/test compound signal—background (100)=% inhibition] by graphing the percent inhibition against the log concentration of test compound. Known inhibitor compounds appropriate for the kinase being assayed were also included on each plate.

[4] = Kinase Selectivity, Tables 2a-2k
[5] = Kinase Selectivity, Tables 2a-2k, read-out: HER2 Kinase IC50

Sequence of FGF-R2 (P21802 22-821, species assumed): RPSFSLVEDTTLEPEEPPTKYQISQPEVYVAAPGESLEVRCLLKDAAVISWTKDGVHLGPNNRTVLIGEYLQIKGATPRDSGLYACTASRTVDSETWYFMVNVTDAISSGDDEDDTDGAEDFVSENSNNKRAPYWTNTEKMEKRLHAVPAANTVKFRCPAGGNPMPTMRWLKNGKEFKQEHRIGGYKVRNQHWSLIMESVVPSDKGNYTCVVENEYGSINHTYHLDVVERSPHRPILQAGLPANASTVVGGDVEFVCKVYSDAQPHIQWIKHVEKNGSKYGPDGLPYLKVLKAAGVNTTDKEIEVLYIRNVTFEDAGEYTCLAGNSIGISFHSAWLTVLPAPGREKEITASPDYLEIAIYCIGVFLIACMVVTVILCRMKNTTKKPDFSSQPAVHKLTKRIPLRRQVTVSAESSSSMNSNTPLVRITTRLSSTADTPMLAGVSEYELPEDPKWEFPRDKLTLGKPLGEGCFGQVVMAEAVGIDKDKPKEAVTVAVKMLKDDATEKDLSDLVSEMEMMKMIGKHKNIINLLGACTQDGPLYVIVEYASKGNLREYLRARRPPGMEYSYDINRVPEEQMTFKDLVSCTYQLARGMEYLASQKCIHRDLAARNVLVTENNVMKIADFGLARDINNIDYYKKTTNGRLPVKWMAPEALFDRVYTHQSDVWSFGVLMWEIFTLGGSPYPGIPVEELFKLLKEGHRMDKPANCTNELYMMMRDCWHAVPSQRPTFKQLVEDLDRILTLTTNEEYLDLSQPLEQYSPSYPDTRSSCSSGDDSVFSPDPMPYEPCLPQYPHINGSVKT
T2 sequence (P04626 676-1255 limits assumed): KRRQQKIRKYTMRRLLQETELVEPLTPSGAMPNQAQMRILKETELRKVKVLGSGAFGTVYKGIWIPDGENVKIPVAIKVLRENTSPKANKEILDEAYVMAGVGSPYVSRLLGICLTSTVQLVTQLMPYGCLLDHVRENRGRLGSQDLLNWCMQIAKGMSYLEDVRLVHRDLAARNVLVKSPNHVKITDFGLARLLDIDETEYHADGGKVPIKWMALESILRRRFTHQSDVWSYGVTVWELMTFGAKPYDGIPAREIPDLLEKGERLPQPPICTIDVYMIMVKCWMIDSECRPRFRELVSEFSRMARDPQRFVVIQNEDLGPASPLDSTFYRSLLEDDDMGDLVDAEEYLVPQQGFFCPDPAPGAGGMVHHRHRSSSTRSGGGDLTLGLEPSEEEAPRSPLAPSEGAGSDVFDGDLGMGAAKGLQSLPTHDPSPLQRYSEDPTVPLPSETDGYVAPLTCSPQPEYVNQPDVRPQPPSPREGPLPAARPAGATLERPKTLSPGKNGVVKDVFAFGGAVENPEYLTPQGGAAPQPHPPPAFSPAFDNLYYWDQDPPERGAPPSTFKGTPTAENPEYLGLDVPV
T1 sequence (O08775 786-1343): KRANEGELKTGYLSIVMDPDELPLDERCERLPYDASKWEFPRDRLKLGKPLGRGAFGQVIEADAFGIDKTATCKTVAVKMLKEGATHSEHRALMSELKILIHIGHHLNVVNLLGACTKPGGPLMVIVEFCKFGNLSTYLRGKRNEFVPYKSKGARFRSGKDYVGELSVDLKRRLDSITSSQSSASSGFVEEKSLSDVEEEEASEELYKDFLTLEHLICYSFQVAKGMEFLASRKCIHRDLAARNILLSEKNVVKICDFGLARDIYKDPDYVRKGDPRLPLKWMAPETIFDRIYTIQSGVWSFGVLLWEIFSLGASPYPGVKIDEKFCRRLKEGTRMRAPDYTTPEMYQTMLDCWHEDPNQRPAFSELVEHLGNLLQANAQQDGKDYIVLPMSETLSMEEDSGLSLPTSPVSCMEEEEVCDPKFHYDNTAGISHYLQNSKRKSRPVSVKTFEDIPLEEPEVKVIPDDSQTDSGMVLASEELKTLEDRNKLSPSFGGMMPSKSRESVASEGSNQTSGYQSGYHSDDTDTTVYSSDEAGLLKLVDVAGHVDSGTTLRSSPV

| Compound | IC50 (A375 malignant melanoma) | IC50 [1] | IC50 [2, 4] | IC50 ([2]; Table 1) | IC50 [3, 5] | IC50 ([3]; Table 1, read-out: HER2 IC50) | IC50 (FGF-R2) |
| --- | --- | --- | --- | --- | --- | --- | --- |
| Nc1nc(Nc2ccc(S(N)(=O)=O)cc2)nn1C(=O)c1c(F)cccc1F [Cpd 1, 4-[[5-amino-1-(2,6-difluorobenzoyl)-1H-1,2,4-triazol-3-yl]amino]-benzenesulfonamide] | 447 nM | 119 nM | – | – | – | – | – |
| Nc1nc(Nc2ccc(S(N)(=O)=O)cc2)nn1C(=O)c1sccc1F [Cpd 16, 4-[[5-amino-1-[(3-fluoro-2-thienyl)carbonyl]-1H-1,2,4-triazol-3-yl]amino]-benzenesulfonamide] | 942 nM | 368 nM | 13.7 nM | 13.7 nM | – | – | – |
| Nc1nc(Nc2ccc(S(N)(=O)=O)cc2)nn1C(=O)c1sccc1Cl [Cpd 17, 4-[[5-amino-1-[(3-chloro-2-thienyl)carbonyl]-1H-1,2,4-triazol-3-yl]amino]-benzenesulfonamide] | 4970 nM | 294 nM | 27 nM | 27 nM | – | – | – |
| Nc1nc(Nc2ccc(S(=O)(=O)N3CCCCC3)cc2)nn1C(=O)c1cccs1 [Cpd 23, N^3-[4-(1-piperidinylsulfonyl)phenyl]-1-(2-thienylcarbonyl)-1H-1,2,4-triazole-3,5-diamine] | 424 nM | 859 nM | 35 nM | 35.3 nM | – | – | – |
| Nc1nc(Nc2ccc(S(N)(=O)=O)cc2)nn1C(=O)c1ccsc1 [Cpd 30, 4-[[5-amino-1-(3-thienylcarbonyl)-1H-1,2,4-triazol-3-yl]amino]-benzenesulfonamide] | 8240 nM | 951 nM | 40.6 nM | 40.6 nM | – | – | – |
| CCc1ccc(C(=O)n2nc(Nc3ccc(S(N)(=O)=O)cc3)nc2N)s1 [Cpd 32, 4-[[5-amino-1-[(5-ethyl-2-thienyl)carbonyl]-1H-1,2,4-triazol-3-yl]amino]-benzenesulfonamide] | – | 30 nM | 22 nM | 21.9 nM | 9 nM | – | – |
| Cc1nc(C)c(C(=O)n2nc(Nc3ccc(S(N)(=O)=O)cc3)nc2N)s1 [Cpd 34, 4-[[5-amino-1-[(2,4-dimethyl-5-thiazolyl)carbonyl]-1H-1,2,4-triazol-3-yl]amino]-benzenesulfonamide] | – | 626 nM | – | – | – | – | – |
| Nc1nc(Nc2ccc(S(N)(=O)=O)cc2)nn1C(=O)c1sccc1Br [Cpd 35, 4-[[5-amino-1-[(3-bromo-2-thienyl)carbonyl]-1H-1,2,4-triazol-3-yl]amino]-benzenesulfonamide] | – | 231 nM | – | 46.3 nM | – | – | – |
| Nc1nc(Nc2ccc(S(N)(=O)=O)cc2)nn1C(=O)C1CCCC1 [Cpd 38, 4-[[5-amino-1-(cyclopentylcarbonyl)-1H-1,2,4-triazol-3-yl]amino]-benzenesulfonamide] | – | 2750 nM | – | – | – | – | – |
| Nc1nc(Nc2ccc(S(N)(=O)=O)cc2)nn1C(=O)C1CCCCC1 [Cpd 39, 4-[[5-amino-1-(cyclohexylcarbonyl)-1H-1,2,4-triazol-3-yl]amino]-benzenesulfonamide] | – | 625 nM | – | – | – | – | – |
| CC(C)(C)c1ccc(C(=O)n2nc(Nc3ccc(S(N)(=O)=O)cc3)nc2N)s1 [Cpd 51, 4-[[5-amino-1-[[5-(1,1-dimethylethyl)-2-thienyl]carbonyl]-1H-1,2,4-triazol-3-yl]amino]-benzenesulfonamide] | 333 nM | 57 nM | 19 nM | 19 nM | 31 nM | 31 nM | – |
| Cc1ccccc1C(=O)n1nc(Nc2ccc(S(N)(=O)=O)cc2)nc1N [Cpd 57, 4-[[5-amino-1-(2-methylbenzoyl)-1H-1,2,4-triazol-3-yl]amino]-benzenesulfonamide] | 113 nM | – | – | – | 1320 nM | 1320 nM | – |
| CNS(=O)(=O)c1ccc(Nc2nc(N)n(C(=O)c3c(F)cccc3F)n2)cc1 [Cpd 80, 4-[[5-amino-1-(2,6-difluorobenzoyl)-1H-1,2,4-triazol-3-yl]amino]-N-methyl-benzenesulfonamide] | – | 272 nM | – | 935 nM | – | 1120 nM | – |
| CNS(=O)(=O)c1ccc(Nc2nc(N)n(C(=O)c3sccc3C)n2)cc1 [Cpd 82, 4-[[5-amino-1-[(3-methyl-2-thienyl)carbonyl]-1H-1,2,4-triazol-3-yl]amino]-N-methyl-benzenesulfonamide] | – | 15 nM | – | – | – | – | 89 nM |
| CCc1ccc(C(=O)n2nc(Nc3ccc(S(=O)(=O)NCCN(C)C)cc3)nc2N)s1 [Cpd 103, 4-[[5-amino-1-[(5-ethyl-2-thienyl)carbonyl]-1H-1,2,4-triazol-3-yl]amino]-N-[2-(dimethylamino)ethyl]-benzenesulfonamide] | 115 nM | – | 45 nM | 44.9 nM | 228 nM | 228 nM | 170 nM |
| Cc1ccsc1C(=O)n1nc(Nc2ccc(S(=O)(=O)NCCN(C)C)cc2)nc1N [Cpd 104, 4-[[5-amino-1-[(3-methyl-2-thienyl)carbonyl]-1H-1,2,4-triazol-3-yl]amino]-N-[2-(dimethylamino)ethyl]-benzenesulfonamide] | 108 nM | – | – | – | – | – | 200 nM |
| Cc1cc(C)c(C(=O)n2nc(Nc3ccc(NS(C)(=O)=O)cc3)nc2N)s1 [Cpd 108, N-[4-[[5-amino-1-[(3,5-dimethyl-2-thienyl)carbonyl]-1H-1,2,4-triazol-3-5 yl]amino]phenyl]-methanesulfonamide] | – | – | 30 nM | 30.7 nM | 42 nM | 41.7 nM | 307 nM |
| Cc1ccsc1C(=O)n1nc(Nc2ccc(N3CCNC3=O)cc2)nc1N [Cpd 113, 1-[4-[[5-amino-1-[(3-methyl-2-thienyl)carbonyl]-1H-1,2,4-triazol-3-yl]amino]phenyl]-2-imidazolidinone] | – | – | 30 nM | 30.2 nM | 68 nM | 68 nM | – |
| Cc1ccsc1C(=O)n1nc(Nc2ccc(N3CCCS3(=O)=O)cc2)nc1N [Cpd 116, N^3-[4-(1,1-dioxido-2-isothiazolidinyl)phenyl]-1-[(3-methyl-2-thienyl)carbonyl]-1H-1,2,4-triazole-3,5-diamine] | 639 nM | – | 26 nM | 26.1 nM | 131 nM | 131 nM | – |
| Nc1nc(Nc2ccc(N3CCCS3(=O)=O)cc2)nn1C(=O)c1c(F)cccc1F [Cpd 117] | 2190 nM | – | 908 nM | 908 nM | – | – | – |
| Nc1nc(Nc2ccc(S(=O)(=O)Nc3ccccn3)cc2)nn1C(=O)c1c(F)cccc1F [Cpd 118, 4-[[5-amino-1-(2,6-difluorobenzoyl)-1H-1,2,4-triazol-3-yl]amino]-N-(2-pyridinyl)-benzenesulfonamide] | 1620 nM | – | 397 nM | 397 nM | > 10000 nM | > 10000 nM | – |
| Cc1cc(C)c(C(=O)n2nc(Nc3ccc(S(=O)(=O)Nc4ccccn4)cc3)nc2N)s1 [Cpd 120] | 259 nM | – | 82 nM | 82 nM | – | – | – |
| Cc1ccc(F)c(C(=O)n2nc(N)nc2Nc2ccc(S(N)(=O)=O)cc2)c1F [Cpd 123, 4-[[3-amino-1-(2,6-difluoro-3-methylbenzoyl)-1H-1,2,4-triazol-5-yl]amino]-benzenesulfonamide] | > 10000 nM | – | – | – | > 100000 nM | ~100000 nM | – |
